Data from patent US5972357A, “Healthy foods and cosmetics” (Kikkoman Corporation, priority 1996, dated 1999).

Tests used:
[1] = test system: bovine lens α-crystallin; assay: α-crystallin crosslinking polymerization inhibiting activity; assay type: biochemical; conditions: 0.1 mM, 500 mM D-fructose, pH 7.4, 37° C., 2 weeks
Procedure: The effect of garcinol on bovine lens α-crystallin crosslinking polymerization reaction was evaluated. […] The gel after electrophoresis was stained with Coomassie Brilliant Blue, and the protein amounts in bands were determined with a densitometer. The crosslinking polymerization inhibiting activity of the protein was calculated from the following equation.
Protein polymerization inhibiting activity (%)=(Ps-Pc)/Pc×100
polymerization degree of protein=band density of polymerized protein/band density of monomer protein;
Ps: polymerization degree of protein in the presence of test substance;
Pc: polymerization degree of protein in the absence of test substance.

[2] = test system: gastric ulcer; assay: anti-ulcer test against stress ulcer (restrained immersion into water); assay type: in vivo, Wistar/ST male rats; conditions: 200 mg/kg oral
Procedure: Gastric ulcer was induced in Wistar/ST male rats having a weight of about 200 g (6 w) by the stress of restrained immersion into water and the anti-ulcer effects of the test samples were examined in the following groups to which test samples were administered.
Each group comprises six rats.
Group 1: (control) physiological saline
Group 2: (comparative) cetraxate hydrochloride 200 mg/kg
Group 3: (the present invention) garcinol 200 mg/kg
In this connection, the test samples in the control, comparative group and the present invention group were prepared in the same manner as in Experimental Example 9.
Rats having fasted for 24 hours were locked up in a restrained dipping cage after 30 minutes from the oral administration of respective test samples. Next, rats were stressed by dipping the cage into water at 23° C. for 7 hours, and bleeded to death under anesthetization with nembutal, and stomach was isolated. A phosphate buffer (10 ml) containing 10% formalin was injected into the stomach, which was cut open after 10 minutes, and the length of lesion caused in the glandular stomach portion was defined as the lesion index, which was measured in the mm unit to evaluate the anti-ulcer effect.
The method for calculating the suppression rate (%) and the meaning of it has been described in Experimental Example 9.

[3] = DPPH radical scavenging activity
Procedure: The 1,1-diphenyl-2-picrylhydrazyl (DPPH) radical scavenging activity was tested with a garcinol preparation prepared in the similar manner as described in Referential Example 1. That is to say, a 1.0×10^-4 M solution (50% ethanolic) of DPPH was prepared, 0.0002% of a test substance was added, and the decrease of optical density at 528 nm was measured after 1 hour reaction at 25° C. for one hour. In this case, ascorbic acid was used as a standard, the decrease of the absorbance was expressed as 100, and the radical scavenging activity of the test substance was measured as equivalences to ascorbic acid. In this connection, a garcinol preparaion used as the test substance, and vitamin E and (+)-catechin were used as references.

[4] = anti-oxidation activity in a lipid oxidation process promoted by a metal ion (copper sulfate); conditions: 5 μM copper sulfate added; lesser ratio = stronger
Procedure: The anti-oxidation activities was evaluated according to the method by A. Ben Aziz et al. (see Phytochemistry, 10, 1445, 1971). That is to say, an emulsion of linoleic acid and β-carotene was first prepared with Tween 20 (Sigma) and adjusted to pH 7.0 with 0.1 M trishydroxyaminomethane-hydrochloride. To the emulsion was added 0.0005% of a substance to be tested, and the mixture was reacted at 25° C.
During the reaction, the color degradation of β-carotene in association with the autoxidation of linoleic acid was measured with the passage of time as the decreased value of the optical density at 460 nm with a spectrophotometer.
The substance to be tested was a garcinal preparation obtained in Referential Example 1, and vitamin E and (+)-catechin were used as Comparative Example. The antioxidant activity was measured as a ratio of the decreasing rate of absorbance in the presence of the substance to be tested to the decreasing rate of absorbance in the absence of the antioxidant. That is, the substance is judged to have an antioxidant activity when the ratio is less than 1, and thus it is predicated that the lesser the ratio, the stronger the antioxidant activity.
The oxidation process of linoleic acid in Experimental Example 1 is promoted by a metal ion. If 5 μM of copper sulfate is added to the reaction system, the color-degradation rate of β-carotene is promoted by about 30%. When garcinol was added to this system, the ratio of the decreasing rate of absorbance was 0.57. In this connection, it was 0.13 for vitamin E and 0.84 for (+)-catechin.

[5] = test system: Epstein-Barr virus early antigen (EBV-EA); assay: EBV-EA induction inhibiting test (tumor promotion inhibition); assay type: cell-based, human lymphoblasts (Raji); conditions: Homo sapiens, Raji; 8 μg/ml; 3 mM n-butyric acid, 50 nM TPA, 37° C., 48 hours; read-out: suppression of the induction of EBV-EA
Procedure: The effect of inhibiting the tumor promotion was evaluated as follows mainly according to the EBV-EA induction inhibiting test described by Y. Ito et al.
The EBV potentially infected human lymphoblasts (Raji) were first prepared in a concentration of 5×10^5 cell/ml, and cultured in an RPMI-1640 medium to which 3 mM n-butyric acid (inducer) and 50 nM TPA (12-O-tetradecanoylphorbol-13-acetate) (promoter) were added in an atmosphere of 5% carbon dioxide and 95% air under at a temperature of 37° C. for 48 hours. The cells in which EBV-EA had been induced were detected microscopically by indirect immunofluorescence with the serum of a nasopharyngeal carcinoma (NPC) patient. In this system, various concentrations (8 μg/ml, 40 μg/ml, and 200 μg/ml) of the test substance (garcinol sample shown in Referential Example 1) dissolved in DMSO (dimethylsolfoxide) were added together with the promoter to the cells. The activity of suppressing the induction of the Epstein-Barr virus early antigen was defined as the decreasing rate of the cells in which EBV-EA had been induced.

## C=C(C)[C@@H](CC=C(C)C)C[C@@]12C[C@@H](CC=C(C)C)C(C)(C)[C@@](CC=C(C)C)(C(=O)C(C(=O)c3ccc(O)c(O)c3)=C1O)C2=O [garcinol]
[1]
  protein polymerization inhibiting activity: 68%
[2]; restrained water immersion 23° C., 7 hours, control 44.20 ± 18.10
  Length of ulcer: 17.60 ± 9.96 mm
[2]; stress ulcer, vs. control
  Suppression rate: 60.2%
[3]; 0.0002% test substance, 1.0×10^-4 M DPPH, 25° C., 1 hour, 528 nm
  DPPH radical scavenging activity (equivalences to ascorbic acid = 100): 85
[3]; per unit weight of vitamin E
  radical scavenging activity per unit weight relative to vitamin E: about three times
[4]
  ratio of the decreasing rate of absorbance (antioxidant activity with metal ion): 0.57
[5]
  inhibition at 8 µg/mL: 58.2%
